Source: ChEMBL document CHEMBL4837183, “Antiproliferative Bufadienolides from the Bulbs of Drimia altissima” (2021)

Legend:
Type in all cases: functional
T47D = experiment: Growth inhibition of human T47D cells measured after 48 hrs by SRB assay
MDA-MB-231 = experiment: Growth inhibition of human MDA-MB-231 cells measured after 48 hrs by SRB assay
IGROV-1 = experiment: Growth inhibition of human IGROV-1 cells measured after 48 hrs by SRB assay
SF-268 = experiment: Growth inhibition of human SF-268 cells measured after 48 hrs by SRB assay
NCI-H460 = experiment: Growth inhibition of human NCI-H460 cells measured after 48 hrs by SRB assay
NCI-H226 = experiment: Growth inhibition of human NCI-H226 cells measured after 48 hrs by SRB assay
HOP-62 = experiment: Growth inhibition of human HOP-62 cells measured after 48 hrs by SRB assay
MDA-MB-468 = experiment: Growth inhibition of human MDA-MB-468 cells measured after 48 hrs by SRB assay
SNB-75 = experiment: Growth inhibition of human SNB-75 cells measured after 48 hrs by SRB assay
MOLT-4 = experiment: Growth inhibition of human MOLT-4 cells measured after 48 hrs by SRB assay
TK-10 = experiment: Growth inhibition of human TK-10 cells measured after 48 hrs by SRB assay
M14 = experiment: Growth inhibition of human M14 cells measured after 48 hrs by SRB assay
U-251 = experiment: Growth inhibition of human U-251 cells measured after 48 hrs by SRB assay
KM12 = experiment: Growth inhibition of human KM12 cells measured after 48 hrs by SRB assay
HOP-92 = experiment: Growth inhibition of human HOP-92 cells measured after 48 hrs by SRB assay
UACC-257 = experiment: Growth inhibition of human UACC-257 cells measured after 48 hrs by SRB assay
SNB-19 = experiment: Growth inhibition of human SNB-19 cells measured after 48 hrs by SRB assay
NCI/ADR-RES = experiment: Growth inhibition of human NCI/ADR-RES cells measured after 48 hrs by SRB assay
OVCAR-5 = experiment: Growth inhibition of human OVCAR-5 cells measured after 48 hrs by SRB assay
K562 = experiment: Growth inhibition of human K562 cells measured after 48 hrs by SRB assay
Hs-578T = experiment: Growth inhibition of human Hs-578T cells measured after 48 hrs by SRB assay
NCI-H322M = experiment: Growth inhibition of human NCI-H322M cells measured after 48 hrs by SRB assay
NCI-H23 = experiment: Growth inhibition of human NCI-H23 cells measured after 48 hrs by SRB assay
HCT-116 = experiment: Growth inhibition of human HCT-116 cells measured after 48 hrs by SRB assay
HL-60 = experiment: Growth inhibition of human HL-60 cells measured after 48 hrs by SRB assay
UO-31 = experiment: Growth inhibition of human UO-31 cells measured after 48 hrs by SRB assay
HCT-15 = experiment: Growth inhibition of human HCT-15 cells measured after 48 hrs by SRB assay
OVCAR-3 = experiment: Growth inhibition of human OVCAR-3 cells measured after 48 hrs by SRB assay
SK-MEL-2 = experiment: Growth inhibition of human SK-MEL-2 cells measured after 48 hrs by SRB assay
PC-3 = experiment: Growth inhibition of human PC-3 cells measured after 48 hrs by SRB assay
MDA-MB-435 = experiment: Growth inhibition of human MDA-MB-435 cells measured after 48 hrs by SRB assay
SK-OV-3 = experiment: Growth inhibition of human SK-OV-3 cells measured after 48 hrs by SRB assay
COLO 205 = experiment: Growth inhibition of human COLO 205 cells measured after 48 hrs by SRB assay
CAKI-1 = experiment: Growth inhibition of human CAKI-1 cells measured after 48 hrs by SRB assay
SN12C = experiment: Growth inhibition of human SN12C cells measured after 48 hrs by SRB assay
SK-MEL-5 = experiment: Growth inhibition of human SK-MEL-5 cells measured after 48 hrs by SRB assay
HT-29 = experiment: Growth inhibition of human HT-29 cells measured after 48 hrs by SRB assay
NCI-H522 = experiment: Growth inhibition of human NCI-H522 cells measured after 48 hrs by SRB assay
CCRF-CEM = experiment: Growth inhibition of human CCRF-CEM cells measured after 48 hrs by SRB assay
DU-145 = experiment: Growth inhibition of human DU-145 cells measured after 48 hrs by SRB assay
Malme-3M = experiment: Growth inhibition of human Malme-3M cells measured after 48 hrs by SRB assay
SK-MEL-28 = experiment: Growth inhibition of human SK-MEL-28 cells measured after 48 hrs by SRB assay
SF-539 = experiment: Growth inhibition of human SF-539 cells measured after 48 hrs by SRB assay
SW-620 = experiment: Growth inhibition of human SW-620 cells measured after 48 hrs by SRB assay
SF-295 = experiment: Growth inhibition of human SF-295 cells measured after 48 hrs by SRB assay
ACHN = experiment: Growth inhibition of human ACHN cells measured after 48 hrs by SRB assay
A549 = experiment: Growth inhibition of human A549 cells measured after 48 hrs by SRB assay
LOX IMVI = experiment: Growth inhibition of human LOX IMVI cells measured after 48 hrs by SRB assay
A498 = experiment: Growth inhibition of human A498 cells measured after 48 hrs by SRB assay
HCC 2998 = experiment: Growth inhibition of human HCC 2998 cells measured after 48 hrs by SRB assay
BT-549 = experiment: Growth inhibition of human BT-549 cells measured after 48 hrs by SRB assay
MCF7 = experiment: Growth inhibition of human MCF7 cells measured after 48 hrs by SRB assay
UACC-62 = experiment: Growth inhibition of human UACC-62 cells measured after 48 hrs by SRB assay
SR = experiment: Growth inhibition of human SR cells measured after 48 hrs by SRB assay
OVCAR-8 = experiment: Growth inhibition of human OVCAR-8 cells measured after 48 hrs by SRB assay
RXF 393 = experiment: Growth inhibition of human RXF 393 cells measured after 48 hrs by SRB assay
786-0 = experiment: Growth inhibition of human 786-0 cells measured after 48 hrs by SRB assay

**Q.** Which results are given for `C[C@]12CC[C@H]3[C@@H](CC[C@H]4C[C@@H](O)CC[C@@]43C=O)[C@@]1(O)CC[C@@H]2c1ccc(=O)oc1`?
**A.** GI50 (T47D): 4740 nM; GI50 (MDA-MB-231): 14100 nM; GI50 (IGROV-1): 5060 nM; GI50 (SF-268): 1070 nM; GI50 (NCI-H460): 556 nM; GI50 (NCI-H226): 6870 nM; GI50 (HOP-62): 1100 nM; GI50 (MDA-MB-468): 8230 nM; GI50 (SNB-75): 3180 nM; GI50 (MOLT-4): 665 nM; GI50 (TK-10): 2580 nM; GI50 (M14): 4140 nM; GI50 (U-251): 4470 nM; GI50 (KM12): 6250 nM; GI50 (HOP-92): 3220 nM; GI50 (UACC-257): 4500 nM; GI50 (SNB-19): 6410 nM; GI50 (NCI/ADR-RES): 1490 nM; GI50 (OVCAR-5): 5210 nM; GI50 (K562): 4280 nM; GI50 (Hs-578T): 739 nM; GI50 (NCI-H322M): 3120 nM; GI50 (NCI-H23): 1710 nM; GI50 (HCT-116): 633 nM; GI50 (HL-60): 3410 nM; GI50 (UO-31): 1600 nM; GI50 (HCT-15): 2150 nM; GI50 (OVCAR-3): 1710 nM; GI50 (SK-MEL-2): 4300 nM; GI50 (PC-3): 3530 nM; GI50 (MDA-MB-435): 3500 nM; GI50 (SK-OV-3): 5630 nM; GI50 (COLO 205): 6520 nM; GI50 (CAKI-1): 1500 nM; GI50 (SN12C): 877 nM; GI50 (SK-MEL-5): 2350 nM; GI50 (HT-29): 2700 nM; GI50 (NCI-H522): 694 nM; GI50 (CCRF-CEM): 1070 nM; GI50 (DU-145): 1180 nM; GI50 (Malme-3M): 3470 nM; GI50 (SK-MEL-28): 6050 nM; GI50 (SF-539): 1470 nM; GI50 (SW-620): 1340 nM; GI50 (SF-295): 1980 nM; GI50 (ACHN): 502 nM; GI50 (A549): 562 nM; GI50 (LOX IMVI): 2370 nM; GI50 (A498): 1130 nM; GI50 (HCC 2998): 8740 nM; GI50 (BT-549): 1730 nM; GI50 (MCF7): 990 nM; GI50 (UACC-62): 3200 nM; GI50 (SR): 2030 nM; GI50 (OVCAR-8): 2830 nM; GI50 (RXF 393): 418 nM; GI50 (786-0): 1760 nM
